Reference: paper PMC6277767, “Broad and Region-Specific Impacts of the Synthetic Cannabinoid CP 55,940 in Adolescent and Adult Female Mouse Brains” (Frontiers in Molecular Neuroscience, 2018)

Test system: CD1 female mouse brain lipidome
Experiment: Brain-region lipid levels (HPLC/MS/MS lipidomics) 2 h after single i.p. 3 mg/kg CP 55,940 vs vehicle
Assay type: in vivo
Set-up: N-arachidonoyl phenylalanine level, Mean / N-stearoyl tryptophan level, Mean / N-stearoyl proline level, Mean / N-stearoyl leucine level, Mean / N-stearoyl phenylalanine level, Mean / N-stearoyl serine level, Mean / N-stearoyl methionine level, Mean: unit: moles per gram
Protocol: The Bloomington Institutional Animal Care and Use Committee of Indiana University reviewed and approved the animal procedures. Female mice from the CD1 strain were utilized to match our study examining THC’s effects on the brain lipidome ([Leishman et al., 2018]). Mice were given a single i.p. injection of either 3 mg/kg CP or 1:1:18 cremophor:ethanol:saline vehicle (please refer to the section “3 mg/kg CP Is Relevant for Synthetic Cannabinoid Abuse and Has Stronger Effects on the Female Mouse Brain Lipidome During Adolescence” for a justification of dose and use of female mice). Three different age groups were given injections: PND 35 and PND 50 adolescents, and adult mice (PND 113). At least eight mice in each age group received CP and at least eight received vehicle. Matching the THC study time course ([Leishman et al., 2018]), mice were sacrificed via rapid decapitation 2 h after injection. Brains were immediately removed and flash-frozen in liquid nitrogen, and then stored at -80°C until dissections were performed. Brains were dissected on an ice-cold dissection plate into the following regions: STR, HIPP, CER, THAL, CTX, HYP, MID, and STEM. These abbreviations for these brain areas will be used exclusively when discussing the results generated by these specific dissections. Each dissected area was immediately placed in liquid nitrogen and then stored at -80°C until used for lipid extraction.
Tissue extracts were performed as previously described ([Bradshaw et al., 2006]; [Stuart et al., 2013]; [Raboune et al., 2014]; [Leishman et al., 2016a],[b], [2017], [2018]). First, samples were shock frozen in liquid nitrogen, weighed, and transferred to a centrifuge tube. The mass of the largest sample was multiplied by 50 to determine how many milliliters of HPLC-grade methanol (Fisher, Fair Lawn, NJ, United States) to add. Then, samples were spiked with 500 pmol deuterium-labeled NAGly (d8NAGly; Cayman Chemical, Ann Arbor, MI, United States). Samples were placed on ice in darkness for 2 h then individually homogenized and centrifuged at 19,000 × g for 20 min at 20°C. Supernatants were diluted with HPLC water (purified in house) to make a solution of 75% water, 25% supernatant. Lipids were partially purified on C18 solid phase extraction columns (Agilent, Palo Alto, CA, United States). A series of four elutions with 1.5 mL of 60%, 75%, 85%, and 100% methanol were collected ([Stuart et al., 2013]; [Leishman et al., 2016a],[b], [2018]).
As previously described ([Bradshaw et al., 2006]; [Tan et al., 2006]; [Smoum et al., 2010]; [Stuart et al., 2013]; [Tortoriello et al., 2013]; [Raboune et al., 2014]; [Leishman et al., 2016a],[b], [2017], [2018]), samples were analyzed using an Applied Biosystems API 3000 triple quadrupole mass spectrometer with electrospray ionization (Foster City, CA, United States). Using an Agilent XDB-C18 reversed phase analytical column and optimized mobile phase gradients, 20 μL from each elution were chromatographed. Two Shimadzu 10ADvp pumps (Columbia, MD, United States) provided the pressure for gradient elution. Mobile phase A: 20% methanol, 80% water (v/v) and 1 mM ammonium acetate (Sigma, St. Louis, MO, United States). Mobile phase B: 100% methanol, 1 mM ammonium acetate. Every method run began with 0% mobile phase B, reached 100% mobile phase B flowing at 0.2 mL/min, and gradually returned to 0% mobile phase B.
This screening library will be referred to as the lipidome when discussing data from this study. HPLC/MS/MS data were analyzed using Analyst software (Applied Biosystems) ([Bradshaw et al., 2006]; [Tan et al., 2006]; [Stuart et al., 2013]; [Tortoriello et al., 2013]; [Raboune et al., 2014]; [Leishman et al., 2016a],[b], [2017], [2018]). Chromatograms (Supplementary Figure 3) were generated by determining the retention time of analytes from the analytical column with a [M-1] or [M+1] parent peak and a fragmentation peak corresponding to the programmed values. […]

[1] = midbrain, PND 35 WT adolescent female mice, 3 mg/kg
[2] = striatum, PND 50, 3mg/kg CP 55,940 vs Veh
[3] = striatum, PND 50 female mice, 3mg/kg CP 55,940, mean

Structure (SMILES): CCCCCCC(C)(C)c1ccc([C@@H]2C[C@H](O)CC[C@H]2CCCO)c(O)c1 [CP 55,940]
- N-stearoyl GABA level, Mean [1]: 7.82E-12
- N-stearoyl alanine level, Mean [1]: 9.99E-12
- N-stearoyl ethanolamine level, Mean [1]: 1.75E-11
- N-stearoyl glycine level, Mean [1]: 2.16E-11
- N-stearoyl leucine level, Mean [1]: 1.07E-12
- N-stearoyl methionine level, Mean [1]: 2.71E-12
- N-stearoyl phenylalanine level, Mean [1]: 2.34E-12
- N-stearoyl proline level, Mean [1]: 3.86E-13
- N-stearoyl serine level, Mean [1]: 3.54E-11
- N-stearoyl tryptophan level, Mean [1]: 7E-13
- N-stearoyl tyrosine level, Mean [1]: 2.3E-13
- Oleic acid level, Mean [1]: 1.55E-09
- PGE2 level, Mean [1]: 5.98E-10
- PhosphoLEA level, Mean [1]: 1.57E-11
- 2-arachidonoyl glycerol, Direction (relative to Veh) [2]: ↓
- 2-arachidonoyl glycerol, Magnitude (x Veh level) [2]: 0.86 x Veh level
- 2-linoleoyl glycerol Direction (relative to Veh) [2]: ↓
- 2-linoleoyl glycerol Magnitude (x Veh level) [2]: 0.77 x Veh level
- Arachidonic acid, Direction (relative to Veh) [2]: ↓
- Arachidonic acid, Magnitude (x Veh level) [2]: 0.81 x Veh level
- Linoleic acid, Direction (relative to Veh) [2]: ↓
- Linoleic acid, Magnitude (x Veh level) [2]: 0.78 x Veh level
- N-arachidonoyl GABA Direction (relative to Veh) [2]: ↓
- N-arachidonoyl GABA Magnitude (x Veh level) [2]: 0.71 x Veh level
- N-arachidonoyl glycine Direction (relative to Veh) [2]: ↓
- N-arachidonoyl glycine Magnitude (x Veh level) [2]: 0.65 x Veh level
- N-arachidonoyl phenylalanine, Direction (relative to Veh) [2]: ↓
- N-arachidonoyl phenylalanine, Magnitude (x Veh level) [2]: 0.78 x Veh level
- N-arachidonoyl taurine Direction (relative to Veh) [2]: ↓
- N-arachidonoyl taurine Magnitude (x Veh level) [2]: 0.91 x Veh level
- N-docosahexaenoyl GABA Direction (relative to Veh) [2]: ↓
- N-docosahexaenoyl GABA Magnitude (x Veh level) [2]: 0.81 x Veh level
- N-docosahexaenoyl glycine Direction (relative to Veh) [2]: ↓
- N-docosahexaenoyl glycine Magnitude (x Veh level) [2]: 0.51 x Veh level
- N-palmitoyl leucine, Direction (relative to Veh) [2]: ↑
- N-palmitoyl leucine, Magnitude (x Veh level) [2]: 1.33 x Veh level
- N-palmitoyl tyrosine Magnitude (x Veh level) [2]: 1.35 x Veh level
- N-palmitoyl tyrosine, Direction (relative to Veh) [2]: ↑
- N-palmitoyl valine Direction (relative to Veh) [2]: ↑
- N-palmitoyl valine Magnitude (x Veh level) [2]: 1.72 x Veh level
- Oleic acid, Direction (relative to Veh) [2]: ↓
- Oleic acid, Magnitude (x Veh level) [2]: 0.79 x Veh level
- PGF2α Direction (relative to Veh) [2]: ↑
- PGF2α Magnitude (x Veh level) [2]: 1.16 x Veh level
- 2-arachidonoyl-sn-glycerol level [3]: 1.35E-10
- 2-linoleoyl-sn-glycerol level [3]: 8.22E-11
- 2-oleoyl-sn-glycerol level [3]: 9.26E-10
- 2-palmitoyl-sn-glycerol level [3]: 1.09E-09
- 11-OH-THC level [3]: BDL
- 11-nor-9-carboxyTHC level [3]: BDL
- Arachidonic acid level [3]: 2.35E-10
- Cannabidiol level [3]: BDL
- Linoleic acid level [3]: 1.59E-10
- N-arachidonoyl GABA level [3]: 4.29E-12
- N-arachidonoyl dopamine level [3]: BDL
- N-arachidonoyl ethanolamine level [3]: 2.93E-11
- N-arachidonoyl glycine level [3]: 5.51E-13
- N-arachidonoyl phenylalanine level [3]: 3.83E-13
- N-arachidonoyl proline level [3]: BDL
- N-arachidonoyl taurine level [3]: 2.53E-11
- N-arachidonoyl tryptophan level [3]: BDL
- N-docosahexaenoyl GABA level [3]: 4.96E-13
- N-docosahexaenoyl ethanolamine level [3]: 3.09E-11
- N-docosahexaenoyl glycine level [3]: 1.15E-13
- N-docosahexaenoyl leucine level [3]: 1.19E-13
- N-docosahexaenoyl methionine level [3]: BDL
- N-docosahexaenoyl phenylalanine level [3]: 4.38E-13
- N-docosahexaenoyl proline level [3]: BDL
- N-docosahexaenoyl tryptophan level [3]: BDL
- N-docosahexaenoyl valine level [3]: BDL
- N-linoleoyl alanine level [3]: 1.36E-13
- N-linoleoyl ethanolamine level [3]: 5.34E-11
- N-linoleoyl glycine level [3]: 6.89E-14
- N-linoleoyl leucine level [3]: 4.43E-14
- N-linoleoyl proline level [3]: BDL
- N-linoleoyl serine level [3]: 1.09E-10
- N-linoleoyl tryptophan level [3]: BDL
- N-linoleoyl tyrosine level [3]: BDL
- N-nervonoyl valine level [3]: BDL
- N-oleoyl GABA level [3]: 1.25E-12
- N-oleoyl alanine level [3]: 1.2E-12
- N-oleoyl dopamine level [3]: BDL
- N-oleoyl ethanolamine level [3]: 6.94E-11
- N-oleoyl glycine level [3]: 1.27E-12
- N-oleoyl leucine level [3]: 4.16E-13
- N-oleoyl methionine level [3]: 3.74E-13
- N-oleoyl phenylalanine level [3]: 5.89E-13
- N-oleoyl proline level [3]: BDL
- N-oleoyl serine level [3]: 2.17E-10
- N-oleoyl tryptophan level [3]: BDL
- N-oleoyl tyrosine level [3]: 1.31E-13
- N-palmitoyl GABA level [3]: 3.11E-12
- N-palmitoyl alanine level [3]: 4.63E-12
- N-palmitoyl ethanolamine level [3]: 6.26E-11
- N-palmitoyl glycine level [3]: 5.26E-12
- N-palmitoyl leucine level [3]: 1.06E-12
- N-palmitoyl methionine level [3]: 1.12E-12
- N-palmitoyl phenylalanine level [3]: 9.78E-13
- N-palmitoyl proline level [3]: BDL
- N-palmitoyl serine level [3]: 2.18E-11
- N-palmitoyl tryptophan level [3]: BDL
- N-palmitoyl tyrosine level [3]: 4.79E-13
